Tests used:
[1] = tested on: freely-moving adult male Sprague—Dawley rats
[2] = tested on: adult male Sprague—Dawley rats; settings: rat, in vivo, iv
[3] = tested on: adult male Sprague—Dawley rats; assay: Arterial blood gas measurements and A-a gradient; format: in vivo, rat; settings: GSHee 100 μmol/kg IV alone
[4] = tested on: adult male Sprague—Dawley rats; assay: Behaviors observed after injection; format: in vivo, rat; settings: GSHee 100 μmol/kg IV
[5] = tested on: adult male Sprague—Dawley rats; assay: Body temperature (BT), rectal thermistor probe; settings: for Body temperature, Post-drug: conscious rats
[6] = GSH 100 μmol/kg IV, % change from Pre-values
[7] = GSH 100 μmol/kg IV, sum of the 15 individual % change from pre values

Structure (SMILES) | Freq (frequency of breathing) ([1]; GSH 100 μmol/kg IV alone) | MV (minute ventilation) ([1]; GSH 100 μmol/kg IV alone) | TV (tidal volume) ([1]; GSH 100 μmol/kg IV alone) | Frequency (breaths/min), Peak drug response, % [1, 6] | Minute Ventilation (ml/min), Peak drug response, % [1, 6] [%] | Tidal Volume (ml), Peak drug response, % [1, 6] | Frequency, Total drug response, % [1, 7] | Minute Ventilation, Total drug response, % [1, 7] [%] | Tidal Volume, Total drug response, % [1, 7] | tail-flick latency (TFL) [2] | A-a gradient [3] | arterial blood pCO2 [3] | arterial blood pH [3] | arterial blood pO2 [3] | arterial blood sO2 [3] | behavioral signs (movement, squealing, scratching or sniffing) after injection [4] | body temperature (BT) ([5]; 5 and 15 min post-injection of GSHee 100 μmol/kg IV) | Body temperature, Post-drug ([5]; 5 min after GSHee 100 μmol/kg IV) | Body temperature, Post-drug ([5]; 15 min after GSHee 100 μmol/kg IV)
N[C@@H](CCC(=O)N[C@@H](CS)C(=O)NCC(=O)O)C(=O)O [GSH, glutathione] | prompt but short-lived increase | short-lived increases | minor effects | +41% | 61 | +15% | +13% | 15 | +2% |  |  |  |  |  |  |  |  |  | 
CCOC(=O)CNC(=O)[C@H](CS)NC(=O)CC[C@H](N)C(=O)O [GSHee, L-glutathione ethyl ester] |  |  |  |  |  |  |  |  |  | did not alter TFL | did not affect | minor but significant decrease | minor but significant increases | minor but significant increases | did not affect | did not display any obvious behavioral signs | Neither vehicle nor GSHee affected BT | 37.9 ± 0.1 | 37.9 ± 0.1
